Measured values taken from US20090175969A1, “Formulation for treating obesity and associated metabolic syndrome” (priority 2004, published 2009).

Experiments:
[1] = test system: lipase; conditions: human, three capsules of 120 mg daily; cited from earlier work
[2] = target: T1, pancreatic lipase (Homo sapiens, UniProt P16233); test: in vitro effect on the activity of pancreatic lipase; assay type: biochemical; conditions: concentration of 10 mg, after 45 and 60 minutes, 37° C.
T1 sequence (P16233 17-465): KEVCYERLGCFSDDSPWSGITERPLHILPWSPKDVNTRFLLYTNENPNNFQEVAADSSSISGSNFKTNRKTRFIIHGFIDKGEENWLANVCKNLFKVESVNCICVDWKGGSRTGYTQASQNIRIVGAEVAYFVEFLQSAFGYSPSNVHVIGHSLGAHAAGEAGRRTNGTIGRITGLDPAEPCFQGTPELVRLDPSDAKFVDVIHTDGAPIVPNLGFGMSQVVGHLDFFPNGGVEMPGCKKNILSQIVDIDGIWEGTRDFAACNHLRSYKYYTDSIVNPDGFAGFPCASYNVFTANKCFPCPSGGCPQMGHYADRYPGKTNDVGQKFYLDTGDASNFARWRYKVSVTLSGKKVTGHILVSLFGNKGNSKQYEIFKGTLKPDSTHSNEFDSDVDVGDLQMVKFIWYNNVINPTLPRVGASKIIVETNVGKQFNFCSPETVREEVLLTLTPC
Description: The composition of the formulation of the invention is presented below in the Table 1: […]

Structure (SMILES): CCCCCCCCCCC[C@@H](C[C@@H]1OC(=O)[C@H]1CCCCCC)OC(=O)[C@H](CC(C)C)NC=O (relative stereo) [Xenical®, ([2S-[2a(R*),3b]]N-formyl-L-leucine 1-[(3-hexyl-4-oxo-2-oxetanyl)methyl]dodecyl ester)]
- consumed fat that goes through the digestive tract without decomposition and is not absorbed [1]: 30%
- inhibition of lipase activity [2]: complete inhibition
